Measurements reported in US20110039763A1, “TARGETED ANTIMICROBIAL MOIETIES” (C3 JIAN, INC., priority 2009, published 2011).
Entries after “also recorded” stand apart in the source; their conditions may differ.

The substances below were run on microorganisms (assay: Targeting peptide binding to target microorganisms (Tables 3, 10, 12)). Details: microorganism(s) the targeting peptide binds; binding in aqueous buffers varied with peptide solubility, preferably 1x PBS.

Row | Substance | Target(s)
1 | PF-201 (GCRPASLSDADPDGR; Peptide with targeting and/or antimicrobial activity) | S. epidermidis; also recorded: M. luteus; also recorded: E. coli; also recorded: C. albicans; also recorded: E. faecalis; also recorded: C. jeikeium; also recorded: C. jejuni
2 | PF-202 (ALNRASLRLALGE; Peptide with targeting and/or antimicrobial activity) | S. epidermidis and M. luteus and E. coli and MRSA and E. faecalis and C. jeikeium and C. jejuni
3 | PF-206 (KLRSASKKSLQEKSCGIMPEKPAG; Peptide with targeting and/or antimicrobial activity) | M. luteus; also recorded: C. albicans; also recorded: C. jeikeium; also recorded: C. jejuni
4 | PF-207 (AAGCRDLGSLSSLVTNPS; Peptide with targeting and/or antimicrobial activity) | M. luteus; also recorded: C. jeikeium
5 | PF-210 (EREDGCDAMPLP; Peptide with targeting and/or antimicrobial activity) | S. epidermidis and P. aeruginosa and C. albicans and MRSA and E. faecalis and C. jeikeium and C. jejuni
6 | PF-213 (MTTGVDFIIEKV; Peptide with targeting and/or antimicrobial activity) | S. epidermidis
7 | PF-214 (GHLRVCWVFSASLLTPFRSATLI; Peptide with targeting and/or antimicrobial activity) | S. mutans; also recorded: S. epidermidis; also recorded: M. luteus; also recorded: E. coli; also recorded: P. aeruginosa; also recorded: A. baumannii
8 | PF-216 (ESVDKITEALEEDGFPAKVQ; Peptide with targeting and/or antimicrobial activity) | S. mutans; also recorded: E. coli
9 | PF-217 (DWEFTHKTIPQKK; Peptide with targeting and/or antimicrobial activity) | S. mutans
10 | PF-218 (SETPEKPVGTFFYSIYYKIIL; Peptide with targeting and/or antimicrobial activity) | S. epidermidis; also recorded: M. luteus; also recorded: P. aeruginosa; also recorded: A. baumannii
11 | PF-219 (FLALAVIAGLFKVILIYAAPYLK; Peptide with targeting and/or antimicrobial activity) | S. epidermidis; also recorded: M. luteus; also recorded: P. aeruginosa; also recorded: A. baumannii
12 | PF-221 (VFDNIDINF; Peptide with targeting and/or antimicrobial activity) | S. epidermidis; also recorded: M. luteus; also recorded: P. aeruginosa
13 | PF-223 (VKFCIECQTKLERKRR; Peptide with targeting and/or antimicrobial activity) | S. epidermidis; also recorded: M. luteus; also recorded: A. baumannii
14 | PF-225 (MNCASPEFKKLMELYK; Peptide with targeting and/or antimicrobial activity) | S. epidermidis
15 | PF-228 (NQLGSQAFAQL; Peptide with targeting and/or antimicrobial activity) | S. mutans
16 | PF-229 (DPILIQIGFTRFALRKAEAEKIEIQVEEGVPA; Peptide with targeting and/or antimicrobial activity) | S. epidermidis; also recorded: M. luteus; also recorded: P. aeruginosa; also recorded: A. baumannii
17 | PF-230 (EDKPTNTIQEIKPVKWQ; Peptide with targeting and/or antimicrobial activity) | S. mutans
18 | PF-231 (AVRDFKKSVREEDEAASLNSPRTIDAQVKTSESTSVKS; Peptide with targeting and/or antimicrobial activity) | S. mutans
19 | PF-232 (FDQLYALEREGKLDELLA; Peptide with targeting and/or antimicrobial activity) | S. epidermidis; also recorded: M. luteus
20 | PF-236 (KEIRTATVAELNAKRRLTSAEQALAEVS; Peptide with targeting and/or antimicrobial activity) | S. mutans; also recorded: S. epidermidis; also recorded: E. coli; also recorded: C. albicans; also recorded: S. pneumoniae; also recorded: E. faecalis
21 | PF-237 (YVKPKVGVHE; Peptide with targeting and/or antimicrobial activity) | S. epidermidis
22 | PF-238 (RNAVVVTEATFPKYEEEITNYLNRRFGEDWSLKLEKCSVA; Peptide with targeting and/or antimicrobial activity) | S. mutans and S. epidermidis and E. coli and P. aeruginosa and C. albicans and MRSA and S. pneumoniae and E. faecalis
23 | PF-239 (PKHNVVTGVSVDLDYKP; Peptide with targeting and/or antimicrobial activity) | S. mutans; also recorded: E. coli
24 | PF-240 (RITEVPPDEHSDR; Peptide with targeting and/or antimicrobial activity) | S. mutans; also recorded: E. coli

Row | Substance | Target(s)
25 | PF-242 (KLFEDPLIKSKAVENFQTTWHEQCLAKELAKNM; Peptide with targeting and/or antimicrobial activity) | S. mutans; also recorded: E. coli
26 | PF-244 (HMRTISYLLAFAKFSLFIPPKQSLKRL; Peptide with targeting and/or antimicrobial activity) | S. epidermidis; also recorded: M. luteus; also recorded: P. aeruginosa; also recorded: A. baumannii
27 | PF-245 (MNDVKPVVQPKQTLKAFLVQLLSVRAGVYIKQNNQLPKTKG; Peptide with targeting and/or antimicrobial activity) | S. epidermidis; also recorded: M. luteus; also recorded: P. aeruginosa; also recorded: A. baumannii
28 | PF-246 (QPDEKAEFFDPSLDKVYRHPTFYHIPDGIEHM; Peptide with targeting and/or antimicrobial activity) | S. mutans
29 | PF-247 (ETAASETH; Peptide with targeting and/or antimicrobial activity) | S. epidermidis
30 | PF-248 (ILSKLWFWMINSLGVVLLVSYWLLAKWGVA; Peptide with targeting and/or antimicrobial activity) | S. mutans; also recorded: S. epidermidis; also recorded: M. luteus; also recorded: E. coli; also recorded: P. aeruginosa; also recorded: A. baumannii
31 | PF-253 (VRDDDS; Peptide with targeting and/or antimicrobial activity) | S. epidermidis; also recorded: M. luteus
32 | PF-254 (FIYGVGFVPHFWLWKWLFSPWIAWPLMLLGYYIWFLT; Peptide with targeting and/or antimicrobial activity) | S. epidermidis; also recorded: M. luteus; also recorded: P. aeruginosa; also recorded: A. baumannii
33 | PF-256 (EYFKQVYVKNEKIYSFWICKDLSPKEAAKRAEDILVKLK; Peptide with targeting and/or antimicrobial activity) | S. epidermidis
34 | PF-259 (LPFSKIGRRVSYKKKDVLKYEQSKTVLNTAQLATV; Peptide with targeting and/or antimicrobial activity) | S. epidermidis; also recorded: P. aeruginosa; also recorded: A. baumannii
35 | PF-262 (DPHSEIDVTRYCQLHHFTCQTMQISEREFHYLIETQ; Peptide with targeting and/or antimicrobial activity) | S. mutans; also recorded: S. epidermidis; also recorded: M. luteus; also recorded: E. coli; also recorded: P. aeruginosa; also recorded: A. baumannii
36 | PF-263 (NLKKCPC; Peptide with targeting and/or antimicrobial activity) | S. epidermidis; also recorded: M. luteus; also recorded: A. baumannii
37 | PF-265 (MKTLFFPLFLIIFVLIIQALDQSYQKKIGISKPQKHPEFMQ; Peptide with targeting and/or antimicrobial activity) | S. epidermidis; also recorded: M. luteus; also recorded: A. baumannii
38 | PF-266 (DQEKKNKTEESTEQ; Peptide with targeting and/or antimicrobial activity) | S. mutans
39 | PF-267 (SDDKRTD; Peptide with targeting and/or antimicrobial activity) | M. luteus
40 | PF-268 (EVLLSDLRPDIFSET; Peptide with targeting and/or antimicrobial activity) | S. mutans
41 | PF-275 (LVSGVANTVKNTAHTVGNTAKHAGHVAADTTVKATKKQQVK; Peptide with targeting and/or antimicrobial activity) | S. mutans
42 | PF-279 (SHIGFISISACLAVLLGIARLFVWTWVKFFA; Peptide with targeting and/or antimicrobial activity) | S. mutans; also recorded: S. epidermidis; also recorded: M. luteus; also recorded: E. coli; also recorded: P. aeruginosa; also recorded: A. baumannii
43 | PF-281 (SYNTYYNKLIHGQRTPDGM; Peptide with targeting and/or antimicrobial activity) | S. mutans; also recorded: E. coli
44 | PF-282 (QNNDTSAWCGSAHKNGNS; Peptide with targeting and/or antimicrobial activity) | S. mutans
45 | PF-284 (MRYITYSLIPRLLSKKVIHQQ; Peptide with targeting and/or antimicrobial activity) | C. difficile
46 | PF-285 (VPAKLLRVIDEIPE; Peptide with targeting and/or antimicrobial activity) | S. mutans
47 | PF-288 (IYQLLNIEYSEDD; Peptide with targeting and/or antimicrobial activity) | S. mutans; also recorded: E. coli
